Measurements from ChEMBL document CHEMBL3639255, “Bivalent diazo bicyclic Smac mimetics and the uses thereof” (2014).

Experiments:
[1] = target: Baculoviral IAP repeat-containing protein 3 (Homo sapiens, UniProt Q13489); experiment: (§1) Fluorescence Polarization-Based Assays: An in vitro fluorescence polarization (FP) based binding assay was used to test the binding ability of the compounds of the present invention to certain IAP proteins (Nikolovska-Coleska et al., Anal. Biochem. 332:261-73 (2004)). he FP-based assay for XIAP BIR3 protein was described in detail previously (Nikolovska-Coleska et al., Anal. Biochem. 332:261-73 (2004)). Briefly, 5-carboxyfluorescein was coupled to the lysine side chain of a mutated Smac peptide with the sequence (AbuRPFK-Fam) and this fluorescently tagged peptide (named SM5F) was used as the fluorescent tracer in FP-based binding assay to XIAP BIR3.
[2] = target: Baculoviral IAP repeat-containing protein 2 (Homo sapiens, UniProt Q13490); experiment: as §1
Chain of Baculoviral IAP repeat-containing protein 2 (Q13490 whole entry, looked up, change not shown): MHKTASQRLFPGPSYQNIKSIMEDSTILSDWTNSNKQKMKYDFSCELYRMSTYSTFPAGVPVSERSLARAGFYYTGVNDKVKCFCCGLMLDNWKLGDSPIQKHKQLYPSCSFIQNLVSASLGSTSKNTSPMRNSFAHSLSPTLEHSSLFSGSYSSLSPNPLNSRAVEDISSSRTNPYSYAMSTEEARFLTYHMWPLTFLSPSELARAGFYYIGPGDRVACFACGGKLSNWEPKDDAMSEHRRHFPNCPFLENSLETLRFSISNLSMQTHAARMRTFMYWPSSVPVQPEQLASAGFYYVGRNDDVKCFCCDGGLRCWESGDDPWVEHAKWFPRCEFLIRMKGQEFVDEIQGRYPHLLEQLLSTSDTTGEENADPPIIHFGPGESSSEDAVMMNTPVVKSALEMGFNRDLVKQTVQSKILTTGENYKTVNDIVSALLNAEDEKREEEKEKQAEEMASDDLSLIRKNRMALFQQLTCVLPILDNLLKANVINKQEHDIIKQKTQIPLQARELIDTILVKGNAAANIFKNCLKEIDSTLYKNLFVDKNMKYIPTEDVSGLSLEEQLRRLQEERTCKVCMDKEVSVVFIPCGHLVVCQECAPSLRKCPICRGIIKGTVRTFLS

Chain of Baculoviral IAP repeat-containing protein 3 (Q13489 whole entry, looked up, stated change not applied): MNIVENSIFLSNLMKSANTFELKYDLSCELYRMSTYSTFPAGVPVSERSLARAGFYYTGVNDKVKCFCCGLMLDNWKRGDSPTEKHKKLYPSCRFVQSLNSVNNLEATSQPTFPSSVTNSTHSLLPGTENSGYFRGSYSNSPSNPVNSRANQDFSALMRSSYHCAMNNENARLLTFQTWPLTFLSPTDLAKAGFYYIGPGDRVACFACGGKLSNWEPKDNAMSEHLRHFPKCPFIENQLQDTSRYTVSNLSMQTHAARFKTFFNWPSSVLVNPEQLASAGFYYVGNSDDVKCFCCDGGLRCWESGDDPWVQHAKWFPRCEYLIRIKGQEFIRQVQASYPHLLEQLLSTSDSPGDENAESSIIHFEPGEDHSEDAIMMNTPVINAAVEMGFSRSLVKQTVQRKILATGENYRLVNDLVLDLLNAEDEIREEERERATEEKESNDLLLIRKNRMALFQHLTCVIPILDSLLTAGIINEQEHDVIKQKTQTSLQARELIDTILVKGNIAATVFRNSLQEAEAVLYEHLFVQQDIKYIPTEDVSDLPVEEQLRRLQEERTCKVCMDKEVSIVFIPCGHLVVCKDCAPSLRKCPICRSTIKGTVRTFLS

Structure (SMILES) | IC50 [1] [µM] | IC50 [2] [µM]
CN[C@@H](C)C(=O)N[C@H]1CN(C(=O)CCCCCCCCCCC(=O)N2CC[C@H]3CC[C@@H](c4nc5c(-c6ccccc6)cccc5[nH]4)N3C(=O)[C@@H](NC(=O)[C@H](C)NC)C2)CC[C@H]2CC[C@@H](c3nc4c(-c5ccccc5)cccc4[nH]3)N2C1=O | < 0.05 | 
C=CC(C=C)c1cccc2[nH]c([C@@H]3CC[C@@H]4CCN(C(=O)CCCCCCCCCCC(=O)N5CC[C@H]6CC[C@@H](c7nc8c(-c9ccccc9)cccc8[nH]7)N6C(=O)[C@@H](NC(=O)[C@H](C)NC)C5)C[C@H](NC(=O)[C@H](C)NC)C(=O)N43)nc12 |  | < 0.05
